{"source": "patent US8735152B2", "about": "“Methods for inducing cell death in pluripotent stem cells and differentiated cells other than cardiac myocytes” (Daiichi Sankyo Company, Limited, priority 2009, dated 2014)", "assay_type_in_all_cases": "cell-based", "key": {"[1]": {"tested_on": "mouse embryonic stem cell-derived cardiomyocytes, residual undifferentiated embryonic stem cells and other cells", "assay": "Mannitol treatment of culture system containing both embryonic stem cell-derived cardiomyocytes and residual embryonic stem cells", "conditions": "0.45 M, 36 hours", "method": "Mouse derived embryonic stem cells were treated by the method of Example 1 to form embryoid bodies, which were differentiated to a stage containing the programmed cardiomyocytes (precardiac mesoderms). Thus obtained embryoid bodies were treated with digestive enzymes (trypsin and collagenase) meticulously to ensure that no cell damage would be caused and the resulting partially dispersed embryoid bodies were subjected to another adherent culture. Upon a 5-day continued culture, populations of cardiomyocytes pulsating autonomously (the cell populations circled by the red lines), cell populations having the traits of embryonic stem cells-like cells (the cell populations circled by the yellow lines), and other cell populations were observed together (see FIG. 2(a)). In the next step, the culture medium for the mixed culture was replaced by a serum-free α-MEM culture medium containing mannitol in 0.45 M (approximately equivalent to 720 mOsm/kg) and ITS {insulin (10 mg/L), transferrin (5.5 mg/L), and sodium selenite ([…])} (GIBCO) and culture was performed for 36 hours. […] Subsequently, the culture medium was replaced by an α-MEM culture medium supplemented with 20% fetal calf serum and culture was continued, whereupon the cardiomyocytes restored autonomous pulsation in 1 or 2 days."}, "[2]": {"tested_on": "mouse embryonic stem cells", "assay": "Cell death inducing effect on mouse embryonic stem cells (TMRM, FACS)", "conditions": "0.45 M", "description": "The mitochondrial membrane potential is lost in dead cells, so if cells are stained with the mitochondrial membrane potential sensitive reagent TMRM (Molecular Probe) which emits fluorescence upon detecting the membrane potential which is an indicator of survival, the fluorescence signal derived from this reagent is high in live cells but low in dead cells. This feature was used in Example 3; embryonic stem cells cultured by the method of Example 1 were further cultured in an α-MEM culture medium containing 0.45 M mannitol (approximately equivalent to 720 mOsm/kg) and 1 μM TMRM for a period of 0 h (Pre), 3 h, 6 h or 20 h; the cultured embryonic stem cells were harvested, washed and subjected to FACS analysis for checking the state of their survival on the basis of the fluorescence intensity of the mitochondrial membrane potential sensitive reagent TMRM; the results are shown in FIG. 4. In FIG. 4 depicting the results of FACS analysis for 0 h (Pre), 3 h, 6 h, and 20 h, the cells lying above the border line on the dot plots diagrams are live cells and those below the border line are dead cells."}, "[3]": {"tested_on": "human embryonic stem cell-derived embryoid bodies", "assay": "Cell death inducing effect on residual stem cells in human embryonic stem cell-derived embryoid bodies and enrichment of cardiomyocytes", "conditions": "0.45 M, 2 hours", "method": "After passaging, human embryonic stem cells were subjected to suspension culture in a culture medium [α-MEM (minimum essential medium) (SIGMA), supplemented with 10% FBS (EQUITEC BIO), 100 units/ml penicillin, and 50 μg/ml streptomycin (GIBCO)] to induce formation of embryoid bodies. At 14-18 days after the start of differentiation (the start of suspension culture), autonomously pulsating cells started to differentiate, which was confirmed in a separate step that they were cardiomyocytes.\nThe embryoid bodies still maintained an autonomously pulsating ability after the passage of 3 months from the start of differentiation. They were partially treated with 0.1% collagenase (Wortington) and 0.1% trypsin (DIFCO) to be dispersed as fine cell masses. The cell masses were divided into two groups; one group was treated with 0.45 M mannitol (approximately equivalent to 720 mOsm/kg) for 2 hours, and the other group (control) was not treated with mannitol but treated with the same amount of a solution having the physiological osmotic pressure, Ads buffer (116.4 mM NaCl, 5.4 mM KCl, 5.6 mM dextrose, 10.9 mM NaH2PO4, 405.7 μM MgSO4, 20 mM Hepes, pH 7.3) for 2 hours. After the treatment, both cell groups were subjected to adherent culture for 3 days in a DMEM solution supplemented with 10% fetal calf serum.\nThe mannitol-treated cells and the control cells were analyzed in accordance with the experimental procedure of Example 1 using a mouse anti-Oct-3/4 monoclonal antibody (No. 084720 of BD Transduction Laboratories) and a goat anti-Nkx 2.5 antibody (No. N-19 of Santacruz) as primary antibodies, for the expression of the Oct-3/4 protein which was both a marker of embryonic stem cells and an intranuclear transcription factor, and for the expression of the Nkx 2.5 protein which was both a cardiomyocyte marker and an intranuclear transcription factor, respectively. The results for the control group, one of the two divided samples, are shown in FIG. 10 and the results for the test group subjected to 2-hr treatment with mannitol are shown in FIG. 11. The upper panels of FIG. 10 show the results of cardiomyocytes and the lower panels show the results of embryonic stem cells.\nThe embryoid bodies still maintained an autonomously pulsating ability after the passage of 3 months from the start of differentiation. They were partially treated with 0.1% collagenase (Wortington) and 0.1% trypsin (DIFCO) to be dispersed as fine cell masses. The cell masses were divided into two groups; one group was treated with saccharides (sugar alcohols: sorbitol, xylitol, and glycerol; sugars: sucrose and glucose; betaines: trimethylglycine) for 12 hours in an amount of 0.45 M (approximately equivalent to 700-780 mOsm/kg) or 0.6 M (approximately equivalent to 850-1000 mOsm/kg), and the other group (control) was not treated with those saccharides but treated with the same amount of a solution having the physiological osmotic pressure, Ads buffer (116.4 mM NaCl, 5.4 mM KCl, 5.6 mM dextrose, 10.9 mM NaH2PO4, 405.7 μM MgSO4, 20 mM Hepes, pH 7.3) for 2 hours. After the treatment, both cell groups were cultured for 12 hours in a DMEM solution supplemented with 10% fetal calf serum.\nSamples of differentiated cells derived from human embryonic stem cells, as treated with 0.45 M glycerol (approximately equivalent to 710 mOsm/kg) or 0.6 M glycerol (approximately equivalent to 870 mOsm/kg), were examined for their morphology under the culture conditions. […] The cell death inducing effect was noticeable when the cells were exposed to glycerol for 10 hours and longer (FIG. 14)."}, "embryonic stem cells": {"tested_on": "embryonic stem cells", "assay": "Study of mannitol concentration and duration of exposure versus cell death of embryonic stem cells", "conditions": "1M (substantially saturated concentration)", "description": "The present inventors prepared hypertonic solutions containing mannitol dissolved in it at high concentrations and applied those hypertonic solutions to a mixed cell system comprising embryonic stem cells as well as cardiomyocytes and non-cardiomyocytes; they found the fact that upon exposure to the hypertonic solutions, the embryonic stem cells and non-cardiomyocytes were more likely to undergo cell death."}, "[4]": {"conditions": "one week after the treatment, immunohistochemical technique"}}, "data": [{"smiles": "OC[C@@H](O)[C@@H](O)[C@H](O)[C@H](O)CO", "note": "[mannitol]", "values": [{"measurement": "State of cells other than cardiomyocytes (cell death)", "setting": "[1]; then culture in medium with 20% fetal calf serum", "value": "virtually all cells other than cardiomyocytes were found dead"}, {"measurement": "Nkx 2.5 positive cardiomyocytes among the obtained cells", "setting": "[1]; immunostaining", "value": "≥ 98", "unit": "%"}, {"measurement": "Cells that had died", "setting": "[2]; 3-hr treatment", "value": "approximately 90%"}, {"measurement": "Cells that had died", "setting": "[2]; 6-hr treatment", "value": 98, "unit": "%"}, {"measurement": "Cells that had died", "setting": "[2]; 20-hr treatment", "value": "all cells had been dead"}, {"measurement": "Toxicity in cardiomyocytes", "setting": "[3]", "value": "does not show significant toxicity in cardiomyocytes"}, {"measurement": "Autonomously pulsating cells", "setting": "[3]; then 3 days adherent culture", "value": "autonomously pulsating cell populations and autonomously pulsating single cells were found adherent to or suspended in the culture dish"}, {"measurement": "Colonies of cells assumed to be undifferentiated cells", "setting": "[3]; then 3 days adherent culture", "value": "no such cell populations were found at all"}, {"measurement": "Type of surviving cells (Nkx 2.5)", "setting": "[3]; [4]", "value": "a great majority of the surviving cells were Nkx 2.5 positive cardiomyocytes"}, {"measurement": "Type of surviving cells (Oct-3/4)", "setting": "[3]; [4]", "value": "Oct-3/3 negative cells were hardly detectable"}, {"measurement": "Cell death in embryonic stem cells", "setting": "embryonic stem cells", "value": "induced cell death in embryonic stem cells within a short period of time"}]}]}
